From patent US9340559B2, “Proteasome inhibitor delanzomib for use in the treatment of lupus” (Cephalon, Inc., priority 2011, dated 2016)

Experiments:
Format in all cases: in vivo, mouse
NZM mice [1] = tested on: NZM mice
NZM mice [2] = assay: Collagen type-I cross-linker (CTx) bone resorption biomarker ELISA, serum of NZM mice
Method: Assay is performed as instructed by the manufacturer. Briefly, biotinylated ratlaps antigen is first added in each well of a 96-well ELISA plate. This plate is covered and incubated for 30 minutes at RT. Plate is washed five times with washing solution and incubated with standards or unknown samples in appropriate wells followed by primary Ab. Incubate overnight for 18 hours at 4° C. followed by washing with buffer. Secondary incubation includes a peroxidase conjugated goat anti-rabbit IgG added to each well and incubation at RT for 1 hour. Incubation with chromogenic substrate solution for 15 minutes at RT in the dark develops the plate for analysis. Stopping solution halts the reaction, absorbance is measured within 2 hours at 450 nm.

MRL/lpr mice [3] = assay: Antibody secreting B-cell Elispot (anti-Smith Ag, anti-dsDNA, anti-chromatin ASC), spleens of MRL/lpr mice
Method: (§1) FIG. 9 depicts frequency of anti-Smith antigen and anti-dsDNA antibody secreting cells in the spleens of MRL/lpr mice. MRL/lpr treated mice spleens were processed for splenocytes for ex vivo Elispot assays. Elispot wells were coated with 10 μg/mL of smith antigen, dsDNA or ovalbumin protein. Fresh, whole splenocytes were added to each well at 500,000 cells per well in cell culture medium. Cells were incubated overnight at 37° C. Developed wells provided spots that were counted as frequency of ASCs per million splenocytes.
as §1, with “10” for “9”, “depicts the” for “depicts”, “anti-chromatin” for “anti-Smith antigen and anti-dsDNA”, “boiled chicken chromatin” for “smith antigen, dsDNA”, “[…]” for “500,000”
B-cell Elispot components are ordered from MabTech (Nacka Strand, Sweden) and nitrocellulose IP filter plates are ordered from Millipore (Billerica, Mass.). Elispot wells are coated with either purified bovine thymus dsDNA (Sigma), purified bovine Smith antigen (GenWay) or boiled filtered purified chicken chromatin from lysed chicken red blood cells (Rockland, Gilbertsville, Pa.) at 10 μg/mL. Spleens are processed using glass homogenization, filtered through a 60 μm sterile cell strainer and red blood cells (RBCs) lysed using BioLegend (San Diego, Calif.) lysis buffer. Processed splenocytes are added to each well in culture medium. To avoid skewing of true ex vivo frequencies of antibody secreting cell types (ASCs), cells are not stimulated with a polyclonal mitogen like LPS, but rather incubated in media alone to allow monitoring of genuine ex vivo antibody release. Anti-mouse pan-IgG is used as a positive control for total IgG producing ASCs and is used to normalize results. Frequencies for each antigen are identified in an initial test phase for each model. For chromatin and total IgG only, 30,000 splenocytes are added to each well; for Smith antigen and dsDNA, 500,000 cells are added to each well. Different numbers of splenocytes are added for different antigens due to saturation limits of spot frequencies per well. These limits are previously established. B-cell Elispots are incubated overnight at 37° C. To develop each assay, secondary antibody is added to each well, incubated, washed and alkaline phosphatase strepavidin is used as the conjugate; substrate used is BCIP-NBT. Plates are developed until spots are visible. All Elispot analyses are performed using an Immunospot C.T.L. scanner and Biospot software (Cellular Technology Ltd., Shaker Heights, Ohio). Results are shown as values from which media and cells only wells are subtracted. Some values are negative due to high background.

MRL/lpr mice [4] = assay: Antinuclear antibody (ANA) ELISA (anti-chromatin, anti-Smith Ag, anti-dsDNA IgG), serum of MRL/lpr mice
Source text: For all ANA ELISA assays, values below the limit of detection set by the lowest point along the standard or set by the manufacturer are considered out of range and are not estimated, but assumed the lowest point along the standard curve for that particular assay.

In the case of `CC(C)C[C@H](NC(=O)[C@@H](NC(=O)c1cccc(-c2ccccc2)n1)[C@@H](C)O)B(O)O` [COMPOUND A, [(1R)-1-[[(2S,3R)-3-hydroxy-2-[6-phenyl-pyridine-2-carbonyl)amino]-1-oxobutyl]amino]-3-methylbutylboronic acid], the “p, serum IP-10 concentration vs G6 Bortezomib 0.3 mg/kg 2× wk ip” value (NZM mice [1]; G2 3 mg/kg 2× wk ip) is reported as “NS (NS = not significant (p > 0.05))”, the “p, serum IP-10 concentration vs G7 CTX 50 mg/kg 1× wk ip” value (NZM mice [1]; G2 3 mg/kg 2× wk ip) is reported as “p < 0.001” and the “p, serum IP-10 concentration vs G8 Dex 1.5 mg/kg 3× wk ip” value (NZM mice [1]; G2 3 mg/kg 2× wk ip) is reported as “NS (NS = not significant (p > 0.05))”. For the same compound, the “p, serum IP-10 concentration vs G9 Vehicle 1× wk ip” value (NZM mice [1]; G2 3 mg/kg 2× wk ip) was “NS (NS = not significant (p > 0.05))”, the “p, serum MIG concentration vs G5 Bortezomib 0.3 mg/kg 1× wk ip” value (NZM mice [1]; G2 3 mg/kg 2× wk ip) was “NS (NS = not significant (p > 0.05))” and the “p, serum MIG concentration vs G6 Bortezomib 0.3 mg/kg 2× wk ip” value (NZM mice [1]; G2 3 mg/kg 2× wk ip) was “NS (NS = not significant (p > 0.05))”. For the same compound, the “p, serum MIG concentration vs G7 CTX 50 mg/kg 1× wk ip” value (NZM mice [1]; G2 3 mg/kg 2× wk ip) was “p < 0.001”, the “p, serum MIG concentration vs G8 Dex 1.5 mg/kg 3× wk ip” value (NZM mice [1]; G2 3 mg/kg 2× wk ip) was “NS (NS = not significant (p > 0.05))” and the “p, serum MIG concentration vs G9 Vehicle 1× wk ip” value (NZM mice [1]; G2 3 mg/kg 2× wk ip) was “NS (NS = not significant (p > 0.05))”. For the same compound, the “p, serum TNFα concentration vs G5 Bortezomib 0.3 mg/kg 1× wk ip” value (NZM mice [1]; G2 3 mg/kg 2× wk ip) was “NS (NS = not significant (p > 0.05))”, the “p, serum TNFα concentration vs G6 Bortezomib 0.3 mg/kg 2× wk ip” value (NZM mice [1]; G2 3 mg/kg 2× wk ip) was “NS (NS = not significant (p > 0.05))” and the “p, serum TNFα concentration vs G7 CTX 50 mg/kg 1× wk ip” value (NZM mice [1]; G2 3 mg/kg 2× wk ip) was “NS (NS = not significant (p > 0.05))”. For the same compound, the “p, serum TNFα concentration vs G8 Dex 1.5 mg/kg 3× wk ip” value (NZM mice [1]; G2 3 mg/kg 2× wk ip) was “p <0.001”, the “p, serum TNFα concentration vs G9 Vehicle 1× wk ip” value (NZM mice [1]; G2 3 mg/kg 2× wk ip) was “NS (NS = not significant (p > 0.05))” and the “Cytokine IL-12 AUC, percent change vs vehicle” value (NZM mice [1]; G2 3 mg/kg ip, 2× wk) was −67%. The “Cytokine IL-13 AUC, percent change vs vehicle” value (NZM mice [1]; G2 3 mg/kg ip, 2× wk) was −33%, the “Cytokine IL-17A AUC, percent change vs vehicle” value (NZM mice [1]; G2 3 mg/kg ip, 2× wk) was −89% and the “Cytokine IP-10 AUC, percent change vs vehicle” value (NZM mice [1]; G2 3 mg/kg ip, 2× wk) was −30%. The “Cytokine MIG AUC, percent change vs vehicle” value (NZM mice [1]; G2 3 mg/kg ip, 2× wk) was −66%, the “Cytokine TNFα AUC, percent change vs vehicle” value (NZM mice [1]; G2 3 mg/kg ip, 2× wk) was −57% and the “serum IL-12p40/p70 decrease vs vehicle” value (NZM mice [1]; G2: 3 mg/kg ip twice weekly) was 67%. For the same compound, the “serum TNFα compared to Dex” value (NZM mice [1]; both once and twice weekly doses, p<0.001) was “decreased serum TNFα over that of Dex”, the “serum IL-12 decrease vs vehicle, range over the substance's groups” value (NZM mice [1]; once and twice weekly groups) was 67-83% and the “serum CXCL9/MIG as compared to CTX” value (NZM mice [1]; p<0.001 vs CTX, but not to DEX) was “decreased”. The “IL-13 serum levels compared to vehicle” value (NZM mice [1]; treatment groups) was “No significant change”, the “IL-17A serum levels compared to vehicle” value (NZM mice [1]; treatment groups) was “No significant change” and the “serum CXCL10/IP-10 decrease vs vehicle” value (NZM mice [1]; twice weekly dose) was 30%. The “p, serum concentration of collagen type I cross-linker vs G8 Dex 1.5 mg/kg 3× wk ip” value (NZM mice [2]; G1 3 mg/kg 1× wk ip) was “P < 0.01”, the “Serum CTx linker AUC, percent change vs vehicle” value (NZM mice [2]; G1 3 mg/kg ip, 1× wk) was −41% and the “p, serum concentration of collagen type I cross-linker vs G8 Dex 1.5 mg/kg 3× wk ip” value (NZM mice [2]; G2 3 mg/kg 2× wk ip) was “P < 0.01”. For the same compound, the “Serum CTx linker AUC, percent change vs vehicle” value (NZM mice [2]; G2 3 mg/kg ip, 2× wk) was −40%, the “serum CTx levels compared to vehicle” value (NZM mice [2]; treatment groups) was “no change in CTx levels” and the “ASC EOS Smith Ag, percent change vs vehicle” value (MRL/lpr mice [3]; G1: 3 mg/kg iv, 1× wk) was −97%. For the same compound, the “ASC EOS chromatin, percent change vs vehicle” value (MRL/lpr mice [3]; G1: 3 mg/kg iv, 1× wk) was −89%, the “ASC EOS dsDNA, percent change vs vehicle” value (MRL/lpr mice [3]; G1: 3 mg/kg iv, 1× wk) was −80% and the “ASC EOS Smith Ag, percent change vs vehicle” value (MRL/lpr mice [3]; G2: 3 mg/kg iv, 2× wk) was −110%. For the same compound, the “ASC EOS chromatin, percent change vs vehicle” value (MRL/lpr mice [3]; G2: 3 mg/kg iv, 2× wk) was −98%, the “ASC EOS dsDNA, percent change vs vehicle” value (MRL/lpr mice [3]; G2: 3 mg/kg iv, 2× wk) was −84% and the “ASC EOS Smith Ag, percent change vs vehicle” value (MRL/lpr mice [3]; G3: 10 mg/kg po, 2× wk) was −86%. The “ASC EOS chromatin, percent change vs vehicle” value (MRL/lpr mice [3]; G3: 10 mg/kg po, 2× wk) was −79%, the “ASC EOS dsDNA, percent change vs vehicle” value (MRL/lpr mice [3]; G3: 10 mg/kg po, 2× wk) was −82% and the “anti-Smith Ag IgG ASC frequency decrease vs vehicle” value (MRL/lpr mice [3]; Group 1) was 97%. For the same compound, the “anti-dsDNA IgG ASC frequency decrease vs vehicle” value (MRL/lpr mice [3]; Group 1) was 80%, the “anti-Smith Ag IgG ASC frequency decrease vs vehicle” value (MRL/lpr mice [3]; Group 2) was 100% and the “anti-dsDNA IgG ASC frequency decrease vs vehicle” value (MRL/lpr mice [3]; Group 2) was 84%. For the same compound, the “anti-Smith Ag IgG ASC frequency decrease vs vehicle” value (MRL/lpr mice [3]; Group 3) was 86%, the “anti-dsDNA IgG ASC frequency decrease vs vehicle” value (MRL/lpr mice [3]; Group 3) was 82% and the “ANA AUC Smith Ag, percent change vs vehicle” value (MRL/lpr mice [4]; G1: 3 mg/kg iv, 1× wk) was −96%. For the same compound, the “ANA AUC chromatin, percent change vs vehicle” value (MRL/lpr mice [4]; G1: 3 mg/kg iv, 1× wk) was −94%, the “ANA AUC dsDNA, percent change vs vehicle” value (MRL/lpr mice [4]; G1: 3 mg/kg iv, 1× wk) was −91% and the “ANA AUC Smith Ag, percent change vs vehicle” value (MRL/lpr mice [4]; G2: 3 mg/kg iv, 2× wk) was −96%. The “ANA AUC chromatin, percent change vs vehicle” value (MRL/lpr mice [4]; G2: 3 mg/kg iv, 2× wk) was −94%, the “ANA AUC dsDNA, percent change vs vehicle” value (MRL/lpr mice [4]; G2: 3 mg/kg iv, 2× wk) was −95% and the “ANA AUC Smith Ag, percent change vs vehicle” value (MRL/lpr mice [4]; G3: 10 mg/kg po, 2× wk) was −94%. For the same compound, the “ANA AUC chromatin, percent change vs vehicle” value (MRL/lpr mice [4]; G3: 10 mg/kg po, 2× wk) was −91%, the “ANA AUC dsDNA, percent change vs vehicle” value (MRL/lpr mice [4]; G3: 10 mg/kg po, 2× wk) was −37% and the “anti-Smith Ag IgG ANA level decrease vs vehicle at EOS” value (from here on “anti-Smith Ag IgG ANA level decrease”) (MRL/lpr mice [4]; Group 1) was 97%. The “anti-chromatin IgG level reduction vs vehicle” value (MRL/lpr mice [4]; Group 1) was 89%, the “anti-dsDNA IgG ANA decrease vs vehicle” value (MRL/lpr mice [4]; Group 1 (iv)) was 80% and the “anti-Smith Ag IgG ANA level decrease” value (MRL/lpr mice [4]; Group 2) was 100%. For the same compound, the “anti-chromatin IgG level reduction vs vehicle” value (MRL/lpr mice [4]; Group 2) was 98%, the “anti-dsDNA IgG ANA decrease vs vehicle” value (MRL/lpr mice [4]; Group 2 (iv)) was 84% and the “anti-Smith Ag IgG ANA level decrease” value (MRL/lpr mice [4]; Group 3) was 86%. For the same compound, the “anti-chromatin IgG level reduction vs vehicle” value (MRL/lpr mice [4]; Group 3) was 79%.
